According to patent publication US7064120B2, “Tricyclic pyridyl carboxamides and derivatives thereof tocolytic oxytocin receptor antagonists” (Wyeth, priority 2001, dated 2006):

Molecular target: T1, human vasopressin V2 receptor subtype (Homo sapiens, UniProt P30518)
T1 construct: host or cells: CHO cells, stably transfected (pZeoSV vector)
Assay: Vasopressin binding in CHO cell membranes expressing human vasopressin V2 subtype receptors ([3H]arginine vasopressin radioligand binding)
Details: 100 nM
Experimental: Vasopressin Binding in Chinese Hamster Ovary Cell Membranes Expressing Human Vasopressin V2 Subtype Receptors
Chinese Hamster Ovary (CHO) cells stably transfected with the human V2 subtype receptors were obtained from M. Thibonnier, Case Western Reserve University School of Medicine, Cleveland, Ohio.
The trypsin is removed by aspiration and the cells dislodged by tapping. Cell Culture medium (e.g. 30 mL for 1:30 split) is immediately added and mixed well to inactivate trypsin. 1 mL of detached cells is added to new culture flasks containing fresh Cell Culture medium (e.g. into 25 mL per T-150 flask), and mixed gently. The cells are incubated at 37° C. in 5% CO2. The medium is changed at 3 to 4 day interval (or as appropriate). […] All steps are done under sterile conditions.
The cells are washed twice gently with Hank's Balanced Salt solution (e.g. use 10 mL per T-150 flask). […] The contents are transferred to centrifuge tubes (50 mL) kept in ice bath. All subsequent steps are done at 4° C. The tubes are centrifuged at 300×g for 15 min (1380 rpm on SORVAL, Model RT6000D, using the rotor for 50 mL tubes). The supernatant is discarded and the cells suspended in homogenizing buffer(10 mM Tris-HCl containing 0.25 M sucrose and 1 mM EDTA, pH 7.4) ensuring that the volume of the buffer is about ten times the volume of the cell pellet. The cells are pooled into a centrifuge tube (50 mL) and homogenized with Polytron at setting 6 for 10 sec. The homogenate is transferred into a Potter-Elvjehm homogenizer and homogenized with 3 strokes. The homogenate is centrifuged at 1500×g for 60 min at 4° C. (3100 rpm using SORVAL, model RT6000D, using the rotor for 50 mL tubes). The pellet is discarded. The supernatant is centrifuged at 100,000×g for 60 min. at 4° C. (Beckman L8-80M ultracentrifuge; spin at 37,500 rpm with rotor type 70 Ti for 50 mL tubes; 38,000 rpm with type 80Ti for 15 mL tubes; or 35,800 rpm with rotor type 45Ti). The supernantant is discarded and the pellet suspended in 3 to 4 mL of Tris buffer (50 mM TRIS-HCl, pH 7.4). The protein content is estimated by the Bradford or Lowry method. The volume of the membrane suspension is adjusted with the membrane buffer (50 mM Tris-HCl containing 0.1% BSA and 0.1 mM PMSF) to give 3.0 mg/mL (or as appropriate) of protein. The membranes are aliquoted and stored at −70° C.
In wells of a 96-well format microtiter plate, is added 90, 110 or 130 μL (to make up a final volume of 200 μL) of assay buffer containing 50 mM of Tris-HCl (pH 7.4), […], 1 mg % aprotinin, 1 mg % leupeptin, 2 mg % 1,10-phenanthroline, 10 mg % trypsin inhibitor, and 0.1 mM PMSF. The inhibitors are added on the day of the experiment. The components are mixed at room temperature, and then kept in ice bath following adjustment of the pH to 7.4. […] For vasopressin and other peptide ligands 20 μL of 50% DMSO is added and the assay buffer volume is adjusted accordingly. To each well is added 50 μL of frozen membrane suspension thawed immediately prior to use and diluted in assay buffer to the required concentration (equivalent to 25 to 50 μg of protein/well as needed). 20 μL of 8 nM [^3H]arginine vasopressin ligand in the assay buffer, prepared just before use is added and incubated at room temperature for 60 min. shaking the plate on a mechanical shaker for the first 15 min. The incubation is stopped by rapid filtration of the plate contents followed by wash with ice-cold buffer (50 mM Tris-HCl, pH 7.4) using a cell harvester (Tomtek and Printed filtermat-B filter paper). The filter paper is thoroughly dried (7–12 min. in a microwave oven) and impregnated with MeltiLex B/H melt-on scintillation wax sheets and the radioactivity counted in a betaplate scintillation counter.
Binding data is either reported as percent inhibition at a certain concentration or if an IC50 was calculated, as a nanomolar concentration.

T1 sequence (P30518 whole entry): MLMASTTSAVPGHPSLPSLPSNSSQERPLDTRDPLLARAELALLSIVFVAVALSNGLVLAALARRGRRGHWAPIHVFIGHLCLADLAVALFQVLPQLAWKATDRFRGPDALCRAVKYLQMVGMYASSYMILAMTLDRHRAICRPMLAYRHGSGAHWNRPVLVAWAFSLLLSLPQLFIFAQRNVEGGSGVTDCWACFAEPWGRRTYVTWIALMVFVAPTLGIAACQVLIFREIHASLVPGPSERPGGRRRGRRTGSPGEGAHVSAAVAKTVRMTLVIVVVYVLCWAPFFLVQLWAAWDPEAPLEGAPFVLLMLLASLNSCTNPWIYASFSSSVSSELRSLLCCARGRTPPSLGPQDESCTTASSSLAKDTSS

Row | inhibition at 0.1 µM [%] | Structure (SMILES) | V2 % inhibition @ 100 nM [%]
1 | 34 | COc1ccccc1-c1ccc(C(=O)N2Cc3ccc(C(=O)N4CCCCC4c4cccnc4)n3Cc3ccccc32)cc1 (centres unmarked) [Example 139, {10-[(2′-Methoxy-[1,1′-biphenyl]-4-yl)carbonyl]-10,11-dihydro-5H-pyrrolo[2,1-c][1,4]benzodiazepin-3-yl}[2-(3-pyridinyl)-1-piperidinyl]methanone] | 
2 | 13 | COc1ccccc1-c1ccc(C(=O)N2Cc3ccc(C(=O)N(C)CCc4ccccn4)n3Cc3ccccc32)cc1OC [Example 64, 10-[(2,2′-Dimethoxy-[1,1′-biphenyl]-4-yl)carbonyl]-N-methyl-N-[2-(2-pyridinyl)ethyl]-10,11-dihydro-5H-pyrrolo[2,1-c][1,4]benzodiazepine-3-carboxamide] | 
3 | 11 | COc1cccc(-c2cc(OC)c(C(=O)N3Cc4ccc(C(=O)NCCc5ccccn5)n4Cc4ccccc43)cc2Cl)c1 [Example 56, 10-[(6-Chloro-3,3′-dimethoxy-[1,1′-biphenyl]-4-yl)carbonyl]-N-[2-(2-pyridinyl)ethyl]-10,11-dihydro-5H-pyrrolo[2,1-c][1,4]benzodiazepine-3-carboxamide] | 
4 | 4 | COc1cccc(-c2ccc(C(=O)N3Cc4ccc(C(=O)NCCc5ccccn5)n4Cc4ccccc43)cc2OC)c1 [Example 59, 10-[(2,3′-Dimethoxy-[1,1′-biphenyl]-4-yl)carbonyl]-N-[2-(2-pyridinyl)ethyl]-10,11-dihydro-5H-pyrrolo[2,1-c][1,4]benzodiazepine-3-carboxamide] | 
5 | 15 | COc1cc(C(=O)N2Cc3ccc(C(=O)N4CCN(c5ccncc5)CC4)n3Cc3ccccc32)ccc1-n1c(C)ccc1C [Example 146, {10-[4-(2,5-Dimethyl-1H-pyrrol-1-yl)-3-methoxybenzoyl]-10,11-dihydro-5H-pyrrolo[2,1-c][1,4]benzodiazepin-3-yl}[4-(pyridin-4-yl)-1-piperazinyl]methanone] | 
6 | 31 | COc1cc(C(=O)N2Cc3ccc(C(=O)NCc4ccccn4)n3Cc3ccccc32)ccc1-c1cccc2ccccc12 [Example 31, 10-[3-Methoxy-4-(naphthalen-1-yl)benzoyl]-N-(2-pyridinylmethyl)-10,11-dihydro-5H-pyrrolo[2,1-c][1,4]benzodiazepine-3-carboxamide] | 
7 | 17 | COc1cc(-c2ccccc2C)c(Cl)cc1C(=O)N1Cc2ccc(C(=O)N3CCN(c4ccncc4)CC3)n2Cc2ccccc21 [Example 119, {10-[(6-Chloro-3-methoxy-2′-methyl-[1,1′-biphenyl]-4-yl)carbonyl]-10,11-dihydro-5H-pyrrolo[2,1-c][1,4]benzodiazepin-3-yl}[4-(4-pyridinyl)-1-piperazinyl]methanone] | 
8 | 14 | Cc1cc(C(=O)N2Cc3ccc(C(=O)NCc4ccccn4)n3Cc3ccccc32)ccc1-c1ccccc1C(F)(F)F [Example 35, 10-{[2-Methyl-2′-trifluoromethyl-[1,1′-biphenyl]-4-yl]carbonyl}-N-(2-pyridinylmethyl)-10,11-dihydro-5H-pyrrolo[2,1-c][1,4]benzodiazepine-3-carboxamide] | 
9 | 18 | COc1cc(C(=O)N2Cc3ccc(C(=O)NCCc4ccccn4)n3Cc3ccccc32)ccc1-c1ccccc1C [Example 54, 10-[(2-Methoxy-2′-methyl-[1,1′-biphenyl]-4-yl)carbonyl]-N-[2-(2-pyridinyl)ethyl]-10,11-dihydro-5H-pyrrolo[2,1-c][1,4]benzodiazepine-3-carboxamide] | 
10 | 42 | COc1ccccc1-c1ccc(C(=O)N2Cc3ccc(C(=O)N4CCCCC4c4cccnc4)n3Cc3ccccc32)cc1C (centres unmarked) [Example 138, {10-[(2′-Methoxy-2-methyl-[1,1′-biphenyl]-4-yl)carbonyl]-10,11-dihydro-5H-pyrrolo[2,1-c][1,4]benzodiazepin-3-yl}[2-(3-pyridinyl)-1-piperidinyl]methanone] | 
11 | 21 | COc1cc(C(=O)N2Cc3ccc(C(=O)N(C)CCc4ccncc4)n3Cc3ccccc32)ccc1-n1c(C)ccc1C [Example 147, 10-[4-(2,5-Dimethyl-1H-pyrrol-1-yl)-3-methoxybenzoyl]-N-methyl-N-[2-(pyridin-4-yl)ethyl]-10,11-dihydro-5H-pyrrolo[2,1-c][1,4]benzodiazepine-3-carboxamide] | 
12 | 33 | COc1cccc(-c2ccc(C(=O)N3Cc4ccc(C(=O)NCc5ccccn5)n4Cc4ccccc43)cc2C)c1 [Example 25, 10-[(3′-Methoxy-2-methyl-[1,1′-biphenyl]-4-yl)carbonyl]-N-(2-pyridinylmethyl)-10,11-dihydro-5H-pyrrolo[2,1-c][1,4]benzodiazepine-3-carboxamide] | 
13 |  | COc1cccc(-c2ccc(C(=O)N3Cc4ccc(C(=O)N(C)Cc5cccnc5)n4Cc4ccccc43)cc2OC)c1 [Example 110] | 32
14 | 30 | COc1cccc(-c2ccc(C(=O)N3Cc4ccc(C(=O)N5CCN(c6ccncc6)CC5)n4Cc4ccccc43)cc2OC)c1 [Example 123, {10-[(2,3′-Dimethoxy-[1,1′-biphenyl]-4-yl)carbonyl]-10,11-dihydro-5H-pyrrolo[2,1-c][1,4]benzodiazepin-3-yl}[4-(4-pyridinyl)-1-piperazinyl]methanone] | 
15 | 31 | COc1cc(C(=O)N2Cc3ccc(C(=O)NCc4cccnc4)n3Cc3ccccc32)ccc1-c1cccc2ccccc12 [Example 44, 10-[3-Methoxy-4-(naphthalen-1-yl)benzoyl]-N-(3-pyridinylmethyl)-10,11-dihydro-5H-pyrrolo[2,1-c][1,4]benzodiazepine-3-carboxamide] | 
16 | 0 | COc1cc(C(=O)N2Cc3ccc(C(=O)N(C)Cc4cccnc4)n3Cc3ccccc32)ccc1-c1cccc2ccccc12 [Example 109, 10-[3-Methoxy-4-(naphthalen-1-yl)benzoyl]-N-methyl-N-(3-pyridinylmethyl)-10,11-dihydro-5H-pyrrolo[2,1-c][1,4]benzodiazepine-3-carboxamide] | 
17 | 63 | COc1ccccc1-c1ccc(C(=O)N2Cc3ccc(C(=O)N4CCN(c5ccncc5)CC4)n3Cc3ccccc32)cc1 [Example 116, {10-[(2′-Methoxy-[1,1′-biphenyl]-4-yl)carbonyl]-10,11-dihydro-5H-pyrrolo[2,1-c][1,4]benzodiazepin-3-yl}[4-(4-pyridinyl)-1-piperazinyl]methanone] | 
18 | 16 | Cc1cc(C(=O)N2Cc3ccc(C(=O)N4CCCCC4c4cccnc4)n3Cc3ccccc32)ccc1-c1ccccc1C(F)(F)F (centres unmarked) [Example 142, (10-{[2-Methyl-2′-trifluoromethyl-[1,1′-biphenyl]-4-yl]carbonyl}-10,11-dihydro-5H-pyrrolo[2,1-c][1,4]benzodiazepin-3-yl)[2-(3-pyridinyl)-1-piperidinyl]methanone] | 
19 | 18 | O=C(c1ccc2n1Cc1ccccc1N(C(=O)c1ccc(-c3cccc4ccccc34)cc1Cl)C2)N1CCN(c2ccncc2)CC1 [Example 124, {10-[2-Chloro-4-(naphthalen-1-yl)benzoyl]-10,11-dihydro-5H-pyrrolo[2,1-c][1,4]benzodiazepin-3-yl}[4-(4-pyridinyl)-1-piperazinyl]methanone] | 
20 | 11 | Cc1cc(C(=O)N2Cc3ccc(C(=O)N(C)CCc4ccncc4)n3Cc3ccccc32)ccc1-c1ccccc1C(F)(F)F [Example 137, N-Methyl-10-{[2-methyl-2′-trifluoromethyl-[1,1′-biphenyl]-4-yl]carbonyl}-N-[2-(4-pyridinyl)ethyl]-10,11-dihydro-5H-pyrrolo[2,1-c][1,4]benzodiazepine-3-carboxamide] | 
